Several values for one entry are separate records, joined by “and”; a condition that tells them apart may be missing. Equal values may be shown once. Read-outs that look alike come from different tables or passages of the source.
Experiments:
[1] = ABTS radical cation scavenging activity assay; conditions: 1 h incubation; for ABTS•+-Scavenging Activity, TEAC: Trolox equivalent antioxidant capacity; for IC50: ABTS•+ 100 μM
Description: Radical scavenging activity of the compounds was assessed using the ABTS radical cation (ABTS^•+) decolorization assay with modifications, described in detail in [30, 32]. ABTS (2,2′-azino-bis-(3-ethylbenzothiazoline-6-sulfonic acid)) was purchased from Tokyo Chemical Industry Co., Ltd. (Tokyo, Japan), potassium persulfate (dipotassium peroxodisulfate), Trolox (6-hydroxy-2,5,7,8-tetramethylchroman-2-carboxylic acid), HPLC-grade ethanol, and DMSO were obtained from Sigma-Aldrich. All tested compounds were dissolved in DMSO.
The reaction was monitored for 1 h with an interval of 1–10 min. Data are given for 1 h of incubation of compounds with ABTS^•+ (100 μM final concentration). The reduction in absorbance was measured spectrophotometrically at 734 nm using xMark UV/VIS microplate spectrophotometer (Bio-Rad, Hercules, CA, USA). Ethanol blanks were run in each assay. Values were obtained from three replicates of each sample and three independent experiments. Standard antioxidant Trolox was used as a reference compound. Trolox equivalent antioxidant capacity (TEAC) values were determined as the ratio between the slopes obtained from the linear correlation of the ABTS radical absorbance with the concentrations of tested compounds and Trolox.

porcine liver CES = assay: CES inhibition, 4-NPA substrate; format: biochemical; conditions: compound concentration 20 µM
human erythrocyte AChE = human erythrocyte AChE (Homo sapiens, UniProt P22303); assay: biochemical
human erythrocyte AChE, sequence (P22303 other isoform, or with tags, fused parts or gaps): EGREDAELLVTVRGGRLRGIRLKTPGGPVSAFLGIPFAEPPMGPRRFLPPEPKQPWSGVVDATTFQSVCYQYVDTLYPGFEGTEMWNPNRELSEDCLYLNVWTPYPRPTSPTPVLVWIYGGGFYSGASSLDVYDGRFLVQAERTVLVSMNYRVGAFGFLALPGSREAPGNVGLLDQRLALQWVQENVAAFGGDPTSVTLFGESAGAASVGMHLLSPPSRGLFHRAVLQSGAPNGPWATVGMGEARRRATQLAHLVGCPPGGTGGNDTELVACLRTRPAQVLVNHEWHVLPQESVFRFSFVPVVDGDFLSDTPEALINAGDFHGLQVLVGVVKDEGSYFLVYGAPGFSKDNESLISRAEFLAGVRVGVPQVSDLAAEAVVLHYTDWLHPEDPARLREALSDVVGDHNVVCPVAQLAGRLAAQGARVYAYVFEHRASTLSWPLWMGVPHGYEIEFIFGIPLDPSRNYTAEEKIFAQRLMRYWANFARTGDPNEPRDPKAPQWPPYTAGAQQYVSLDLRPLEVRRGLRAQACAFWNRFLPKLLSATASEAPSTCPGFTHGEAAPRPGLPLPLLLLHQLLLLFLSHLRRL

EeAChE PAS = molecular target: T1, EeAChE PAS (Electrophorus electricus, UniProt O42275); assay: Propidium iodide displacement from the PAS of EeAChE; format: binding, Electric eel; conditions: compound concentration 20 µM
T1 construct: purchased Sigma-Aldrich type VI-S
T1 sequence (O42275 24-633): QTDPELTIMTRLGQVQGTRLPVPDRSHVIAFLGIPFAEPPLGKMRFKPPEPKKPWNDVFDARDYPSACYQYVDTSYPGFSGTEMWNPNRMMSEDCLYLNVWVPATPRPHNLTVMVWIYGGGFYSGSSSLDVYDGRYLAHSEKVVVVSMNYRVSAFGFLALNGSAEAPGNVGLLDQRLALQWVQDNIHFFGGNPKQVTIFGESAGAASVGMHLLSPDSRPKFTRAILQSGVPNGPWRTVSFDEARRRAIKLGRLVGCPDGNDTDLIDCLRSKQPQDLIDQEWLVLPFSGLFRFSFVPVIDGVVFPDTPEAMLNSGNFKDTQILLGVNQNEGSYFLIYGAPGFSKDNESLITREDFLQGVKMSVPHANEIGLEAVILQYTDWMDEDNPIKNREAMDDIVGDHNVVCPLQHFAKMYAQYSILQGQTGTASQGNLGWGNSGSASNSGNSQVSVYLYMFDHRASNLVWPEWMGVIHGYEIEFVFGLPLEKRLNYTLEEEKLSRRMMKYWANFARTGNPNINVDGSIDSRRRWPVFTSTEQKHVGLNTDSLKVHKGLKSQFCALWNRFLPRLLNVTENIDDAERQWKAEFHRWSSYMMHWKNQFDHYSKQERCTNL
Description: The enzyme was Electric eel AChE (EeAChE type VI-S, lyophilized powder, Sigma-Aldrich). We selected this source of AChE for consistency with our other reports and because of the purity, specific activity, and lower cost compared to human AChE.
The assay is based on the high level of fluorescence intensity of propidium iodide bound with AChE decreasing in the presence of test compounds that competitively displace propidium iodide from the AChE PAS [25, 27]. Specificially, EeAChE ([…] final concentration) is incubated with the test compound (20 μM in 1 mM Tris-HCl buffer pH 8.0, 25 °C, for 15 min). Propidium iodide (final concentration 8 μM) is then added for a further 15-min incubation and the fluorescence spectrum is taken (530 nm (excitation) and 600 nm (emission)). The same concentration of propidium iodide in the Tris-HCI buffer was used as the blank. Triplicate determinations were recorded from a FLUOStar Optima microplate reader and results calculated via the following equation:% Displacement = 100 − (IFAChE+ Propidium + inhibitor/IFAChE + Propidium) × 100(1) where IFAChE + Propidium = fluorescence intensity of propidium iodide associated with AChE in the absence of the test compound (taken as 100%), and IFAChE + Propidium + inhibitor = fluorescence intensity of propidium iodide associated with AChE in the presence of the test compound.

equine serum BChE = molecular target: T2, equine serum BChE (Equus caballus, UniProt P81908); assay: biochemical; conditions: n = 3
T2 construct: we used human erythrocyte AChE, equine serum BChE, and porcine liver CES; purchased Sigma-Aldrich; host or cells: equine serum
T2 sequence (P81908 whole entry): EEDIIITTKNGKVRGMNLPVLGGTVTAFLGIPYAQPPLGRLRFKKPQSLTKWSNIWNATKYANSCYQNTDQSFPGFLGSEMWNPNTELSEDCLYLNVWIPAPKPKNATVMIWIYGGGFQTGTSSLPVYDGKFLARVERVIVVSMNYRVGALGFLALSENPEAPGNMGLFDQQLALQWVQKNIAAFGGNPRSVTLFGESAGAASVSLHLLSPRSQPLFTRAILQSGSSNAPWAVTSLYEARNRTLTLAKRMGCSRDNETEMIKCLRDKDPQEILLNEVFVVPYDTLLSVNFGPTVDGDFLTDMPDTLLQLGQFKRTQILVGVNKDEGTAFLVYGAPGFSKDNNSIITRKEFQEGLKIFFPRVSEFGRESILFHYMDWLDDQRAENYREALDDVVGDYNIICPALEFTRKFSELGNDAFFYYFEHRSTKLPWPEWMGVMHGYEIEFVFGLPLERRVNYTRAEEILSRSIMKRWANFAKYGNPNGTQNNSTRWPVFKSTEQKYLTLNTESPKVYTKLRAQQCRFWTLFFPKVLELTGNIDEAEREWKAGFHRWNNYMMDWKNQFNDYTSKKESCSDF

[2] = Ferric reducing antioxidant power (FRAP) assay; parameters: key: ratio of Trolox to test compound concentration giving same FRAP effect; conditions: Trolox equivalents; compound concentration 20 µM
Description: The ferric reducing antioxidant power (FRAP) assay proposed by Benzie and Strain [106, 107] was modified to be performed in 96-well microplates, as described in detail in [32]. The FRAP reagent contained 2.5 mL of 10 mM TPTZ (2,4,6-tris(2-pyridyl)-s-triazine, Sigma-Aldrich) solution in 40 mM HCl, 2.5 mL of 20 mM FeCl3 (Sigma-Aldrich) in distilled water and 25 mL of 0.3 M acetate buffer (pH 3.6). Aliquots of 10 µL of the tested compound (compounds 3, 5 or reference substance) dissolved in DMSO (0.5 mM) were placed in quadruplicate. Absorbance was measured at the wavelength of 593 nm after 60-min incubation at 37 °C. In each case, Trolox was used as a reference compound to obtain the standard curve and value was calculated with respect to the activity of Trolox and expressed as Trolox equivalents (TE)—the values calculated as the ratio of the concentrations of Trolox and the test compound, resulting in the same effect on ferric reducing activity.

β-amyloid (1–42) (Aβ42) = β-amyloid (1–42) (Aβ42) (Homo sapiens, UniProt P05067); assay: Inhibition of Aβ42 self-aggregation, Thioflavin T fluorescence; format: biochemical; conditions: Aβ42 50 µM, compound 100 µM
β-amyloid (1–42) (Aβ42), sequence (P05067 672-713): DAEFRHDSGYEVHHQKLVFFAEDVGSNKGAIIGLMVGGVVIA
Description: The inhibitory effect of the test compounds toward Aβ42 self-aggregation was determined using the Thioflavin T (ThT) fluorescence method with minor modifications. […] Therefore, the decrease in ThT fluorescence correlates with the activity of studied compounds to inhibit the formation of amyloid aggregates.
A total of 1 mg of lyophilized HFIP-pretreated Aβ42 from rPeptide (Watkinsville, GA, USA) was dissolved in DMSO to obtain a stable initial solution ([Aβ42] = 500 μM), then it was aliquoted and stored at −20 °C.
Then, the samples were incubated for 24 h at 37 °C without stirring in the absence (base level of Aβ42 self-aggregation, control) or presence of the test compounds. Myricetin and propidium iodide were used as references (positive controls). All compounds were used at a concentration of 100 µM. […] Analyses were performed with a FLUOStar Optima microplate reader (LabTech, Ortenberg, Germany). […] Each assay was run in triplicate.

[3] = mean ± SEM, read-out: Equine Serum BChE, IC50

Row | SMILES | ABTS•+-Scavenging Activity, TEAC [1] | Porcine Liver CES, (%) inhibition (porcine liver CES) | IC50 (human erythrocyte AChE) | Displacement of Propidium from EeAChE PAS (EeAChE PAS) | IC50 (equine serum BChE; [3]) | FRAP, TE [2] | IC50 [1] | IC50 (equine serum BChE; MEAN ± SEM, read-out: IC50 for BChE inhibition (Figure S25)) | inhibition at 100 µM (β-amyloid (1–42) (Aβ42)) | Inhibition of Aβ42 Self-Aggregation (β-amyloid (1–42) (Aβ42))
1 | Nc1c2c(nc3c1CCC3)CCCC2 [Amiridine] | 0.04 ± 0.003 | – | – | – | – | – | – | – | – | –
2 | O=[N+]([O-])c1ccc(OP(=O)(O)Oc2ccc([N+](=O)[O-])cc2)cc1 [BNPP, bis-4-nitrophenyl phosphate, reference compound] | – | 99.1 ± 0.93 ^3% | – | – | – | – | – | – | – | –
3 | O=C(CNCCCNCC(=O)Nc1c2c(nc3c1CCC3)CCCC2)Nc1c2c(nc3c1CCC3)CCCC2 [Compound 3b] | 0.05 ± 0.003 | 4.4 ± 0.5% | 2.91 ± 0.74 µM | 14.7 ± 1.2% | 0.128 ± 0.002 µM | 0.05 ± 0.01 | > 200 µM | – | – | –
4 | O=C(CNCCCCNCC(=O)Nc1c2c(nc3c1CCC3)CCCC2)Nc1c2c(nc3c1CCC3)CCCC2 [Compound 3c] | 0.10 ± 0.005 | 0.8 ± 0.2% | 1.46 ± 0.03 µM | 17.7 ± 1.4% | 0.067 ± 0.001 µM | – | ~200 µM | 0.0696 µM | – | –
5 | O=C(CNCCCCCCNCC(=O)Nc1c2c(nc3c1CCC3)CCCC2)Nc1c2c(nc3c1CCC3)CCCC2 [Compound 3d] | – | 6.0 ± 0.6% | 1.39 ± 0.1 µM | 11.2 ± 0.8% | 1.11 ± 0.04 µM | – | – | – | – | –
6 | O=C(CNCCCCCCCCNCC(=O)Nc1c2c(nc3c1CCC3)CCCC2)Nc1c2c(nc3c1CCC3)CCCC2 [Compound 3e] | 0.04 ± 0.002 | 5.1 ± 0.9% | 11.7 ± 1.1 µM | 13.2 ± 1.0% | 6.65 ± 0.5 µM | 0.05 ± 0.01 | > 200 µM | – | – | –
7 | S=C(NCCNC(=S)Nc1c2c(nc3c1CCC3)CCCC2)Nc1c2c(nc3c1CCC3)CCCC2 [Compound 5a, 2,2′-Ethane-1,2-diylbis[N-(2,3,5,6,7,8-hexahydro-1H-cyclopenta[b]quinolin-9-yl)(thiourea)]] | 2.1 ± 0.07 | 4.3 ± 0.2% | 96 ± 3.7 µM | 7.6 ± 0.6% | 4.08 ± 0.23 µM | 0.52 ± 0.04 | 7.6 ± 0.4 µM | – | 2.9 ± 0.2% | –
8 | S=C(NCCCNC(=S)Nc1c2c(nc3c1CCC3)CCCC2)Nc1c2c(nc3c1CCC3)CCCC2 [Compound 5b] | 1.9 ± 0.08 | 4.2 ± 0.5% | 10.9 ± 1 µM | 9.3 ± 0.8% | 0.689 ± 0.025 µM | 0.50 ± 0.03 | 9.9 ± 0.5 µM | – | 1.6 ± 0.1% | –
9 | S=C(NCCCCNC(=S)Nc1c2c(nc3c1CCC3)CCCC2)Nc1c2c(nc3c1CCC3)CCCC2 [Compound 5c] | 1.8 ± 0.05 | 9.6 ± 0.8% | 7.53 ± 0.59 µM | 10.0 ± 0.8% | 0.802 ± 0.081 µM | 0.35 ± 0.02 | 9.7 ± 0.6 µM | – | 17.2 ± 1.5% | –
10 | S=C(NCCCCCCNC(=S)Nc1c2c(nc3c1CCC3)CCCC2)Nc1c2c(nc3c1CCC3)CCCC2 [Compound 5e] | 1.5 ± 0.07 | 10.3 ± 1.0% | 4.08 ± 0.46 µM | 11.1 ± 0.9% | 0.769 ± 0.02 µM | 0.49 ± 0.01 | 10.9 ± 0.7 µM | – | 14.3 ± 1.1% | –
11 | S=C(NCCCCCCCNC(=S)Nc1c2c(nc3c1CCC3)CCCC2)Nc1c2c(nc3c1CCC3)CCCC2 [Compound 5f] | 1.2 ± 0.05 | 5.8 ± 0.3% | 6.28 ± 0.46 µM | 2.5 ± 0.2% | 1.18 ± 0.08 µM | 0.55 ± 0.01 | 12.4 ± 0.8 µM | – | 3.7 ± 0.3% | –
12 | S=C(NCCCCCCCCNC(=S)Nc1c2c(nc3c1CCC3)CCCC2)Nc1c2c(nc3c1CCC3)CCCC2 [Compound 5g] | 1.5 ± 0.07 | 15.9 ± 1.5% | 26.6 ± 0.6 µM | 2.2 ± 0.2% | 1.45 ± 0.09 µM | 0.85 ± 0.03 | 10.8 ± 0.6 µM | – | 5.2 ± 0.4% | –
13 | CC[N+](C)(CC)CCC[n+]1c(-c2ccccc2)c2cc(N)ccc2c2ccc(N)cc21.[I-].[I-] [Propidium iodide, reference compound] | – | – | – | – | – | – | – | – | – | 90.7 ± 7.1%
14 | Cc1c(C)c2c(c(C)c1O)CCC(C)(C(=O)O)O2 (stereo not shown) [Trolox, 6-hydroxy-2,5,7,8-tetramethylchroman-2-carboxylic acid, reference compound] | 1.0 | – | – | – | – | 1.0 | 20 µM and 20.1 µM | – | – | –

— paper PMC8839189, “Bis-Amiridines as Acetylcholinesterase and Butyrylcholinesterase Inhibitors: N-Functionalization Determines the Multitarget Anti-Alzheimer’s Activity Profile” (Molecules, 2022)
